Measurements taken from patent publication US9062043B2, “Fused tricyclic compounds as serine-threonine protein kinase and PARP modulators” (SENHWA BIOSCIENCES, INC., priority 2006, dated 2015).

How the values were obtained:
[1] = Tumor pharmacokinetic study, 30 mg/kg IV QDx6; type: in vivo, mice
recombinant human PIM-1 = recombinant human PIM-1 (Homo sapiens (Human), UniProt P11309); assay: PIM-1 assay (cell-free, radiometric); type: biochemical
Description: The reactions are incubated for 10 min at 30° C., quenched with 100 ul of 0.75% Phosphoric acid, then transferred to and filtered through a Phosphocellulose filter plate (Millipore). After washing each well 5 times with 0.75% Phosphoric acid, Scintilation fluid (15 ul) is added to each well. The residual radioactivity is measured using a […].

protein kinases [2] = target: protein kinases (Homo sapiens, UniProt Q96SB4); assay: Kinase inhibition, percentage of activity at 0.5 μM, standardized radiometric kinase assays; type: biochemical; conditions: SRPK1(h);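 note: each kinase tested separately, with activity read as 33P-labelled substrate protein captured on filters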
protein kinases [3] = target: protein kinases (Homo sapiens, UniProt P11309); assay: as above; type: biochemical; conditions: Pim-1(h)
protein kinases [4] = target: protein kinases (Homo sapiens, UniProt P08069); assay: as above; type: biochemical; conditions: IGF-1R(h)
protein kinases [5] = target: protein kinases (Homo sapiens, UniProt P10721); assay: as above; type: biochemical; conditions: cKit(h)
protein kinases [6] = target: protein kinases (Homo sapiens, UniProt P17612); assay: as above; type: biochemical; conditions: PKA(h)
protein kinases [7] = target: protein kinases (Homo sapiens, UniProt P35968); assay: as above; type: biochemical; conditions: KDR(h)
protein kinases [8] = target: protein kinases (Homo sapiens, UniProt P16234, D842V); assay: as above; type: biochemical; conditions: PDGFRα(D842V)(h)
Chain of protein kinases (Homo sapiens, UniProt P16234, D842V) (P16234 24-1089 D842V limits assumed): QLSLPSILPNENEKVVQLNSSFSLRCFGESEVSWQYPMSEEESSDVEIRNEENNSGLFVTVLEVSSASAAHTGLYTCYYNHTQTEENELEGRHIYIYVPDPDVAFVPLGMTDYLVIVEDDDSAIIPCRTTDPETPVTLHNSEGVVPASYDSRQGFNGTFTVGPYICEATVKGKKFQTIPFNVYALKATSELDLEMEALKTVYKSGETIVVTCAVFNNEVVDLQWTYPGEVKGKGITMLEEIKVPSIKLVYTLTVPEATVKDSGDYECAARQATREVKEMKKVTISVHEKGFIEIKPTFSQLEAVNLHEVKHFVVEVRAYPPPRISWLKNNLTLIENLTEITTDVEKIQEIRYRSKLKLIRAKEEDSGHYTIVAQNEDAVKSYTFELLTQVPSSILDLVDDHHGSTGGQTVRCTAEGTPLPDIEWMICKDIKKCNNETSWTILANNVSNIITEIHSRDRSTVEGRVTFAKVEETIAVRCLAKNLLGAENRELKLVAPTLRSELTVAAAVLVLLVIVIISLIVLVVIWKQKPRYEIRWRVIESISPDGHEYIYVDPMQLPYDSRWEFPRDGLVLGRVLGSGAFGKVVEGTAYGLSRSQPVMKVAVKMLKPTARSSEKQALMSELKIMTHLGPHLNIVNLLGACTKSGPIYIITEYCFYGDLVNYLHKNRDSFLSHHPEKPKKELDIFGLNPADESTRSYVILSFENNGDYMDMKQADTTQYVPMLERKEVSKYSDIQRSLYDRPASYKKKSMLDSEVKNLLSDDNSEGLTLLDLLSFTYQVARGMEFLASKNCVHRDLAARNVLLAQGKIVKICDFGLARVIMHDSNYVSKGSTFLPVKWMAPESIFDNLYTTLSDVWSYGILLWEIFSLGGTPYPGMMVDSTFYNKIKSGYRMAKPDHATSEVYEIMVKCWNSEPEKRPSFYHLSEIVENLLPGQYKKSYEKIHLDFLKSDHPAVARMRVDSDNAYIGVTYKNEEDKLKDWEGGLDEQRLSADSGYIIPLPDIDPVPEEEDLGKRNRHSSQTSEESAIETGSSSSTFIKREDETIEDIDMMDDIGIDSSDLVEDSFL

protein kinases [9] = target: protein kinases (Homo sapiens, UniProt P09619); assay: as above; type: biochemical; conditions: PDGFRβ(h)
Chain of protein kinases (Homo sapiens, UniProt P09619) (P09619 33-1106 limits assumed): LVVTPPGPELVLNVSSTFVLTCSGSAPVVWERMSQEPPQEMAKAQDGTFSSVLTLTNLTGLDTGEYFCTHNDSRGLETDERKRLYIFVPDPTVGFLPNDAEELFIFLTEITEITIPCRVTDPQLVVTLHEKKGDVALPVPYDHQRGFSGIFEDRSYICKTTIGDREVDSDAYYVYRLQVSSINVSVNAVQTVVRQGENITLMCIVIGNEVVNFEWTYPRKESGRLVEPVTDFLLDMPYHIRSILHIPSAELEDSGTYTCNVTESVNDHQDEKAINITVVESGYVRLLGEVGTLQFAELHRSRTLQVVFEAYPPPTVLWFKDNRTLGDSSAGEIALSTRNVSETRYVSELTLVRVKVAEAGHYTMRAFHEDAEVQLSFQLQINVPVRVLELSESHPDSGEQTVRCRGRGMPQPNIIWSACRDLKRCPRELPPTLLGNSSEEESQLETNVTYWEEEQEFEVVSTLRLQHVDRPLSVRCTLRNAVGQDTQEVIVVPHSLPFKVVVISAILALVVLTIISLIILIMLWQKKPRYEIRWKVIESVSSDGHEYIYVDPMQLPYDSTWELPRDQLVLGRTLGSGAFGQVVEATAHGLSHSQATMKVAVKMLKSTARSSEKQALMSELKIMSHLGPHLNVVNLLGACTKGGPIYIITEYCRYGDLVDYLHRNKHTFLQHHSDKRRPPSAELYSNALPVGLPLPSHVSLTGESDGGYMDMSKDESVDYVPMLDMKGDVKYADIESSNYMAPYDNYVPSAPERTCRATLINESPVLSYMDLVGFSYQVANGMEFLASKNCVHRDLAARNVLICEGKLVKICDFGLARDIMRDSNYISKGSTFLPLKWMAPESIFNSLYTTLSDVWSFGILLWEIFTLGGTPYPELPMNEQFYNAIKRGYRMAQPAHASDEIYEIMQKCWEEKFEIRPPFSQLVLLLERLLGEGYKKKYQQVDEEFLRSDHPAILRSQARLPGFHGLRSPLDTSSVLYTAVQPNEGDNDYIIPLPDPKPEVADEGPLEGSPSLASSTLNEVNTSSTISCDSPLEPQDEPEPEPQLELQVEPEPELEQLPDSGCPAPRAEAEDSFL

protein kinases [10] = target: protein kinases (Homo sapiens, UniProt P07333); assay: as above; type: biochemical; conditions: Fms(h)
protein kinases [11] = target: protein kinases (Homo sapiens, UniProt P10721, D816H); assay: as above; type: biochemical; conditions: cKit(D816H)(h)
protein kinases [12] = target: protein kinases (Homo sapiens, UniProt Q13464); assay: as above; type: biochemical; conditions: ROCK-I(h)
Chain of protein kinases (Homo sapiens, UniProt Q13464) (Q13464 2-1354 limits assumed): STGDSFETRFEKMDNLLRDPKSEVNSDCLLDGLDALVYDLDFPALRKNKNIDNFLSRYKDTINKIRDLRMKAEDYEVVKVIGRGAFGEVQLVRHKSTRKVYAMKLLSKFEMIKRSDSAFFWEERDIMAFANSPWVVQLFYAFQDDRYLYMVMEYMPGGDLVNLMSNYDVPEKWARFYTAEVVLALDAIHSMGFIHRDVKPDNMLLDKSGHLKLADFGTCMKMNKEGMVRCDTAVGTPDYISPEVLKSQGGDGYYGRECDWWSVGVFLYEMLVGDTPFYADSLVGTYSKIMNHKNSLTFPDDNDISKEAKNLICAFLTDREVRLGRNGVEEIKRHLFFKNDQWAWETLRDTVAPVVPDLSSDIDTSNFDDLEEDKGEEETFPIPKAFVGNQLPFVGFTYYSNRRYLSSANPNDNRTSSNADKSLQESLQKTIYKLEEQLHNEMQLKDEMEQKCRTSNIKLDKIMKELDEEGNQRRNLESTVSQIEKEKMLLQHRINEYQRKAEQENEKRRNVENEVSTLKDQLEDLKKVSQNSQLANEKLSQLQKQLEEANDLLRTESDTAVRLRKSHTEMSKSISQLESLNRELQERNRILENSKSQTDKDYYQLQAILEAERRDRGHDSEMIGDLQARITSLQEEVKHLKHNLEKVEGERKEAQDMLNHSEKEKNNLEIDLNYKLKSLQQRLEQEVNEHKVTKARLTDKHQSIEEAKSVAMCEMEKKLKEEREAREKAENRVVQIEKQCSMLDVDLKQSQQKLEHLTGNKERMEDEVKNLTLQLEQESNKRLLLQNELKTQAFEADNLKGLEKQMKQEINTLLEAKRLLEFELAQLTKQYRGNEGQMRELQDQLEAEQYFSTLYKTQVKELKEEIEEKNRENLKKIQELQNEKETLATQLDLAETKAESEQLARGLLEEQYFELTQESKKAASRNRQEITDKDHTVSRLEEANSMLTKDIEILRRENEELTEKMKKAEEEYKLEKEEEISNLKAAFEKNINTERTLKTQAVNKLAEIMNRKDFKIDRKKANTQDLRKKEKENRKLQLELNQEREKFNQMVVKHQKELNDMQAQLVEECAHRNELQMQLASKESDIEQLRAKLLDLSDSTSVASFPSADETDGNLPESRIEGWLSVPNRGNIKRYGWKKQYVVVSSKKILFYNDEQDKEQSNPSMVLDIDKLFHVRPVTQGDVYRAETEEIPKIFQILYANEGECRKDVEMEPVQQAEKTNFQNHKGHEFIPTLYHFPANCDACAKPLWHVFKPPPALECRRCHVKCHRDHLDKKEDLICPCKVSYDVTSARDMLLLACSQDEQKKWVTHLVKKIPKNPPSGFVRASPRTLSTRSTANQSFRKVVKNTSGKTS

protein kinases [13] = assay: as above; type: biochemical; conditions: MAPK1(h)
protein kinases [14] = target: protein kinases (Homo sapiens, UniProt P08631); assay: as above; type: biochemical; conditions: Hck(h)
protein kinases [15] = target: protein kinases (Homo sapiens, UniProt Q13177); assay: as above; type: biochemical; conditions: PAK2(h)
protein kinases [16] = target: protein kinases (Homo sapiens, UniProt Q9UM73); assay: as above; type: biochemical; conditions: ALK(h)
protein kinases [17] = target: protein kinases (Homo sapiens, UniProt P00519); assay: as above; type: biochemical; conditions: Abl(h)
protein kinases [18] = target: protein kinases (Homo sapiens, UniProt Q14680); assay: as above; type: biochemical; conditions: MELK(h)
protein kinases [19] = target: protein kinases (Homo sapiens, UniProt P16591); assay: as above; type: biochemical; conditions: Fer(h)
protein kinases [20] = target: protein kinases (Homo sapiens, UniProt Q99683); assay: as above; type: biochemical; conditions: ASK1(h)
protein kinases [21] = target: protein kinases (Homo sapiens, UniProt P16234); assay: as above; type: biochemical; conditions: PDGFRα(h)
Chain of protein kinases (Homo sapiens, UniProt P16234) (P16234 24-1089 limits assumed): as the sequence (P16234 24-1089 D842V limits assumed) above, with V819D counted along it

protein kinases [22] = target: protein kinases (Homo sapiens, UniProt O00418); assay: as above; type: biochemical; conditions: eEF-2K(h)
Chain of protein kinases (Homo sapiens, UniProt O00418) (O00418 2-725 limits assumed): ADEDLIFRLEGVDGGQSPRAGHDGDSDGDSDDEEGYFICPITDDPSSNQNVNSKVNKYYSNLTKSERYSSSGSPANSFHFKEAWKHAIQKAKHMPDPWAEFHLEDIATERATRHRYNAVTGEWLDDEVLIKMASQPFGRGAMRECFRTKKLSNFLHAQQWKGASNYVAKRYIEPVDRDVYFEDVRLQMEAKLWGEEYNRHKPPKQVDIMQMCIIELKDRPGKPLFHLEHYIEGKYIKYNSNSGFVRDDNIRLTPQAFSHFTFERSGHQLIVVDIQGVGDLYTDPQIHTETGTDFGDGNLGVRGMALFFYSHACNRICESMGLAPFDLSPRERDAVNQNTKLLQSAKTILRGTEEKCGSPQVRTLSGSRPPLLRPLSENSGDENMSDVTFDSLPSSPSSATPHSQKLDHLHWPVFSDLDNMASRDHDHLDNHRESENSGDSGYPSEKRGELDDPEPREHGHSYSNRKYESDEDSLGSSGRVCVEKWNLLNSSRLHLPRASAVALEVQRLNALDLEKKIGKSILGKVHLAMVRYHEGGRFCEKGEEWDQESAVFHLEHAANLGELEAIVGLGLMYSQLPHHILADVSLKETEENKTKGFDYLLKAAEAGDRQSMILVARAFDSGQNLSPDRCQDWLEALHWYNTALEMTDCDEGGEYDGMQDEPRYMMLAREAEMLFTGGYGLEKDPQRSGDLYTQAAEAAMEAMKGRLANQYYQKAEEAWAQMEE

protein kinases [23] = target: protein kinases (Homo sapiens, UniProt P04629); assay: as above; type: biochemical; conditions: TrkA(h)
protein kinases [24] = target: protein kinases (Homo sapiens, UniProt P08922); assay: as above; type: biochemical; conditions: Ros(h)
protein kinases [25] = target: protein kinases (Homo sapiens, UniProt P07947); assay: as above; type: biochemical; conditions: Yes(h)
protein kinases [26] = target: protein kinases (Homo sapiens, UniProt Q16832); assay: as above; type: biochemical; conditions: DDR2(h)
protein kinases [27] = target: protein kinases (Homo sapiens, UniProt P31749); assay: as above; type: biochemical; conditions: PKBα(h)
protein kinases [28] = target: protein kinases (Homo sapiens, UniProt P51813); assay: as above; type: biochemical; conditions: Bmx(h)
protein kinases [29] = target: protein kinases (Homo sapiens, UniProt P36888); assay: as above; type: biochemical; conditions: Flt3(h)
protein kinases [30] = target: protein kinases (Homo sapiens, UniProt Q05397); assay: as above; type: biochemical; conditions: FAK(h)
protein kinases [31] = target: protein kinases (Homo sapiens, UniProt Q02750); assay: as above; type: biochemical; conditions: MEK1(h)
protein kinases [32] = target: protein kinases (Homo sapiens, UniProt Q04759); assay: as above; type: biochemical; conditions: PKC0(h)
protein kinases [33] = target: protein kinases (Homo sapiens, UniProt O43293); assay: as above; type: biochemical; conditions: ZIPK(h)
protein kinases [34] = target: protein kinases (Homo sapiens, UniProt P12931); assay: as above; type: biochemical; conditions: Src(1-530)(h)
protein kinases [35] = target: protein kinases (Homo sapiens, UniProt P50613); assay: as above; type: biochemical; conditions: CDK7/cyclinH/MAT1(h)
protein kinases [36] = target: protein kinases (Homo sapiens, UniProt P06493); assay: as above; type: biochemical; conditions: CDK1/cyclinB(h)
protein kinases [37] = target: protein kinases (Homo sapiens, UniProt Q14012); assay: as above; type: biochemical; conditions: CaMKI(h)
protein kinases [38] = target: protein kinases (Homo sapiens, UniProt Q15418); assay: as above; type: biochemical; conditions: Rsk1(h)
protein kinases [39] = target: protein kinases (Homo sapiens, UniProt P07948); assay: as above; type: biochemical; conditions: Lyn(h)
Chain of protein kinases (Homo sapiens, UniProt P07948) (P07948 2-512 limits assumed): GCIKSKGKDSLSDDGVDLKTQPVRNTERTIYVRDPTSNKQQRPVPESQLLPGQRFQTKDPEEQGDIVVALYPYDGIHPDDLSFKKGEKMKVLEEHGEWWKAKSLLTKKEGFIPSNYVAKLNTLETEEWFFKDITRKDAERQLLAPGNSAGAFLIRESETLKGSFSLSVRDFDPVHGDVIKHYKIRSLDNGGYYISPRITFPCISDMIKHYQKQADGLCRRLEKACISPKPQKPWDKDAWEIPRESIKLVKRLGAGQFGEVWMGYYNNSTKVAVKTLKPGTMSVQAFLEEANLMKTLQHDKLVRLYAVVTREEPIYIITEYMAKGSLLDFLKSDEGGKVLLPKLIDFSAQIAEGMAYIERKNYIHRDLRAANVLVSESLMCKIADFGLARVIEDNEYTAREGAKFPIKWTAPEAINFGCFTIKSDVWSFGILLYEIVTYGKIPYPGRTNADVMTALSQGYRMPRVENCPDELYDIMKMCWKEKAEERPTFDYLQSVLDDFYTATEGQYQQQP

Chain of recombinant human PIM-1 (P11309 whole entry): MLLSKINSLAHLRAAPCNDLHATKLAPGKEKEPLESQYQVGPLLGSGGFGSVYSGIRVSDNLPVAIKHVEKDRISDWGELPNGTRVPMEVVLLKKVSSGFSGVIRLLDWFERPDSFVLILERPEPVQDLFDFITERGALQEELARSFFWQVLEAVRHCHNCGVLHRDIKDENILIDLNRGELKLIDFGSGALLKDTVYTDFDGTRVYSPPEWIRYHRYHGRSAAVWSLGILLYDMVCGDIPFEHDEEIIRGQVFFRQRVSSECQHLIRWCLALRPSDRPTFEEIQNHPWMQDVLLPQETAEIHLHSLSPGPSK

C#Cc1cccc(Nc2nc3cc(C(=O)O)ccc3c3cncnc23)c1 [compound A2]
Half life change on repeated dosing [1]: about doubles | Minimum concentration increase after six days [1]: 4-5 times higher | Time to steady state [1]: about three days | IC50 (recombinant human PIM-1): 189 nM | activity at 0.5 µM (protein kinases [2]): 66% | activity at 0.5 µM (protein kinases [3]): 27% | activity at 0.5 µM (protein kinases [4]): 73% | activity at 0.5 µM (protein kinases [5]): 114% | activity at 0.5 µM (protein kinases [6]): 90% | activity at 0.5 µM (protein kinases [7]): 67% | activity at 0.5 µM (protein kinases [8]): 109% | activity at 0.5 µM (protein kinases [9]): 110% | activity at 0.5 µM (protein kinases [10]): 174% | activity at 0.5 µM (protein kinases [11]): 101% | activity at 0.5 µM (protein kinases [12]): 97% | % activity at 0.5 μM (protein kinases [13]): 95% | activity at 0.5 µM (protein kinases [14]): 111% | activity at 0.5 µM (protein kinases [15]): 112% | activity at 0.5 µM (protein kinases [16]): 112% | activity at 0.5 µM (protein kinases [17]): 91% | activity at 0.5 µM (protein kinases [18]): 49% | activity at 0.5 µM (protein kinases [19]): 103% | activity at 0.5 µM (protein kinases [20]): 116% | activity at 0.5 µM (protein kinases [21]): 109% | activity at 0.5 µM (protein kinases [22]): 106% | activity at 0.5 µM (protein kinases [23]): 90% | activity at 0.5 µM (protein kinases [24]): 110% | activity at 0.5 µM (protein kinases [25]): 109% | activity at 0.5 µM (protein kinases [26]): 109% | activity at 0.5 µM (protein kinases [27]): 104% | activity at 0.5 µM (protein kinases [28]): 118% | activity at 0.5 µM (protein kinases [29]): 42% | activity at 0.5 µM (protein kinases [30]): 97% | activity at 0.5 µM (protein kinases [31]): 136% | activity at 0.5 µM (protein kinases [32]): 111% | activity at 0.5 µM (protein kinases [33]): 12% | activity at 0.5 µM (protein kinases [34]): 101% | activity at 0.5 µM (protein kinases [35]): 77% | activity at 0.5 µM (protein kinases [36]): 52% | activity at 0.5 µM (protein kinases [37]): 104% | activity at 0.5 µM (protein kinases [38]): 78% | activity at 0.5 µM (protein kinases [39]): 109%
